This is an account of results in patent US20240199605A1, “SMALL MOLECULAR INHIBITORS OF NF-kB INDUCING KINASE” (Janssen Pharmaceutica NV, priority 2019, published 2024).

Experiment [1] deals with recombinant human NF-kappaB-inducing kinase (NIK/MAP3K14) (Homo sapiens (Human), UniProt Q99558). Put plainly: Inhibition of auto-phosphorylation of recombinant human NIK/MAP3K14 (AlphaScreen). The class given is biochemical. As to conditions: NIK auto-phosphorylation, 5 μM ATP, 1 nM NIK, 2 h at 25° C.; average of values. As for the experimental part:
Inhibition of auto-phosphorylation of recombinant human NF-kappaB-inducing kinase (NIK/MAP3K14) activity (AlphaScreen®)
NIK/MAP3K14 auto-phosphorylation activity was measured using the AlphaScreen® (αscreen) format (Perkin Elmer). All compounds tested were dissolved in dimethyl sulfoxide (DMSO) and further dilutions were made in assay buffer. The final DMSO concentration was 0.7% (v/v) in assays. The assay buffer was 50 mM Tris pH 7.5 containing 1 mM EGTA (ethylene glycol tetraacetic acid), 1 mM DTT (dithiothreitol), 0.1 mM Na3VO4, 5 mM MgCl2, and 0.01% Tween® 20. The assays were carried out in 384 well Proxiplates (Perkin Elmer). The incubations consisted of the compound, 5 μM Adenosine-5′-triphosphate (ATP), and 1 nM NIK/MAP3K14. Incubations were initiated by the addition of GST-tagged NIK/MAP3K14 enzyme, carried out for 2 h at 25° C. and terminated by addition of stop buffer containing anti-phospho-IKK Ser176/180 antibody. Protein A Acceptor and Glutathione-Donor beads were added before reading using an EnVision® Multilabel Plate Reader (Perkin Elmer). […] IC50's were determined by fitting a sigmoidal curve to % inhibition of control versus Log10 compound concentration.
For orientation: Bead proximity is the source of the signal in Alpha formats.

For experiment [2], the system named is p-IKKα levels in L363 (NIK translocated multiple myeloma) cells. Put plainly: Effect of compounds on p-IKKα levels in L363 cells (AlphaLISA SureFire Ultra). The experiment is classed as cell-based, human. As to conditions: Homo sapiens, L-363, 6 h, BAFF stimulated, MG132, 6 h, average of values, read-out: Assay 2 IC50. The method, boiled down: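 Inhibition of p-IKKα (Ser176/180) read by AlphaLISA after 6 h, 37 °C compound exposure (11-point 1:3 series, 0.3% DMSO) of L363 cells pre-incubated overnight ± 250 ng/ml BAFF and plated ± BAFF ± 10 μM MG132. Normalised to BAFF/MG132/DMSO and unstimulated controls; IC50 by sigmoidal fitting, duplicates.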

recombinant human NF-kappaB-inducing kinase (NIK/MAP3K14), sequence (Q99558 whole entry): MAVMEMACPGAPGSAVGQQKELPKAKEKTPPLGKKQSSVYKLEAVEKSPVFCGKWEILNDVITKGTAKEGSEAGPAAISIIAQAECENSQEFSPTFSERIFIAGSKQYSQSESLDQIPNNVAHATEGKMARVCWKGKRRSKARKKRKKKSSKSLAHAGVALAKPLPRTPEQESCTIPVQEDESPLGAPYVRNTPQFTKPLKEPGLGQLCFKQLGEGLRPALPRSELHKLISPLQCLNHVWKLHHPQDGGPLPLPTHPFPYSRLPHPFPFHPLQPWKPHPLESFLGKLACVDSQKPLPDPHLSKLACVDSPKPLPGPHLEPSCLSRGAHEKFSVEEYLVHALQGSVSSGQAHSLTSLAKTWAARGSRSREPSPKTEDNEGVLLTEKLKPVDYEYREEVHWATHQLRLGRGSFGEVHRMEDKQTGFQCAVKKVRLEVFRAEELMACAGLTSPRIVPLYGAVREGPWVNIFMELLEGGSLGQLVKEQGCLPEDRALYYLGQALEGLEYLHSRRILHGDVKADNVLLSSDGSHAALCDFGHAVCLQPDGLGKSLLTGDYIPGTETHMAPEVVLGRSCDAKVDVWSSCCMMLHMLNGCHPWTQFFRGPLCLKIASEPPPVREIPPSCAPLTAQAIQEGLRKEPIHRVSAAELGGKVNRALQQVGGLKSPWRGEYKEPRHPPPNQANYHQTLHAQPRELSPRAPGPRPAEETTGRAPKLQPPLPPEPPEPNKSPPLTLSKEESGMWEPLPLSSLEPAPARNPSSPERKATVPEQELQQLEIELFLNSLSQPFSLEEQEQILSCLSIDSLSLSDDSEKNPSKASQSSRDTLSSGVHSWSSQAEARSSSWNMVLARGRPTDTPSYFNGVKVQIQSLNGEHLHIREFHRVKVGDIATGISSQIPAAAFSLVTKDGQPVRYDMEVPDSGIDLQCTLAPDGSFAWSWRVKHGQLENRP

As a reminder, the IC50 is the concentration that inhibits the measured activity by half. On to `Cc1ccc(C#C[C@]2(O)CCc3cccnc32)cc1-c1ncc2ccnc(N)c2n1` [Example 75, (R)-7-((3-(8-Aminopyrido[3,4-d]pyrimidin-2-yl)-4-methylphenyl)ethynyl)-6,7-dihydro-5H-cyclopenta[b]pyridin-7-ol], for which the IC50 stood at 1.3 nM in experiment [1] and 84 nM in experiment [2].
The corresponding values for `Cc1nc(-c2cccc(C#C[C@]3(O)CCN(C)C3=O)c2)nc2c(N)nccc12` [Example 37, (R)-3-((3-(8-Amino-4-methylpyrido[3,4-d]pyrimidin-2-yl)phenyl)ethynyl)-3-hydroxy-1-methylpyrrolidin-2-one] are 0.6 nM and 35 nM.
The corresponding values for `CN1CC[C@@](O)(C#Cc2cccc(-c3ccc4ncnc(N5CC(C)(C)C5)c4n3)c2)C1=O` [Example 226, (R)-3-((3-(4-(3,3-Dimethylazetidin-1-yl)pyrido[3,2-d]pyrimidin-6-yl)phenyl)ethynyl)-3-hydroxy-1-methylpyrrolidin-2-one] are 42 nM and 1400 nM.
The corresponding values for `CN1CC[C@@](O)(C#Cc2ccc(OC(F)(F)F)c(-c3ccc4ncnc(N)c4n3)c2)C1=O` [Example 271, (R)-3-((3-(4-Aminopyrido[3,2-d]pyrimidin-6-yl)-4-(trifluoromethoxy)phenyl)ethynyl)-3-hydroxy-1-methylpyrrolidin-2-one] are 4.2 nM and 44 nM.
`Cc1ccc(C#C[C@]2(O)CCn3ccnc32)cc1-c1nc2c(N)ncnc2s1` [Example 183, (R)-7-[2-[3-(7-Aminothiazolo[5,4-d]pyrimidin-2-yl)-4-methyl-phenyl]ethynyl]-5,6-dihydropyrrolo[1,2-a]imidazol-7-ol]: the IC50 is at most 0.5 nM in experiment [1] and 6.6 nM in experiment [2].
Take `Cc1ccc(C#C[C@]2(O)CCN(C)C2=O)cc1N1CCc2ncnc(N)c2C1` [Example 220, (R)-3-((3-(4-Amino-7,8-dihydropyrido[4,3-d]pyrimidin-6(5H)-yl)-4-methylphenyl)ethynyl)-3-hydroxy-1-methylpyrrolidin-2-one]: the IC50 in experiment [1] worked out at 1.3 nM; in experiment [2], 65 nM.
Regarding `CN1CC[C@@](O)(C#Cc2cccc(-c3nc4c(N)ncnc4s3)c2)C1=O` [Example 101, (R)-3-((3-(7-Aminothiazolo[5,4-d]pyrimidin-2-yl)phenyl)ethynyl)-3-hydroxy-1-methylpyrrolidin-2-one], the IC50 came out at 1.2 nM in experiment [1] and 26 nM in experiment [2].
For `Nc1nccc2c(C(F)(F)F)nc(-c3cccc(C#C[C@]4(O)CCc5cccnc54)c3)nc12` [Example 61, (R)-7-((3-(8-Amino-4-(trifluoromethyl)pyrido[3,4-d]pyrimidin-2-yl)phenyl)ethynyl)-6,7-dihydro-5H-cyclopenta[b]pyridin-7-ol], the values for the IC50 in experiment [1] and in experiment [2] were 4 nM and 170 nM, respectively.
For `Cc1nc(N)c2c(n1)CCN(c1cccc(C#C[C@]3(O)CCN(C)C3=O)c1)C2` [Example 215, (R)-3-((3-(4-Amino-2-methyl-7,8-dihydropyrido[4,3-d]pyrimidin-6(5H)-yl)phenyl)ethynyl)-3-hydroxy-1-methylpyrrolidin-2-one], the IC50 in experiment [1] amounted to 16 nM; in experiment [2], 900 nM.
The corresponding values for `Cc1c(C#C[C@]2(O)CCN(C)C2=O)cccc1-c1nc2c(N)ncnc2s1` [Example 154, (R)-3-((3-(7-Aminothiazolo[5,4-d]pyrimidin-2-yl)-2-methylphenyl)ethynyl)-3-hydroxy-1-methylpyrrolidin-2-one] are 620 nM and over 5000 nM.
The corresponding values for `CN1CC[C@@](O)(C#Cc2cccc(-c3cc(Br)c4ncnc(N)c4n3)c2)C1=O` [Example 253, (R)-3-((3-(4-Amino-8-bromopyrido[3,2-d]pyrimidin-6-yl)phenyl)ethynyl)-3-hydroxy-1-methylpyrrolidin-2-one] are 0.4 nM and 5.1 nM.
The corresponding values for `CN1CC[C@@](O)(C#Cc2cccc(-c3cc(-c4ccco4)c4ncnc(N)c4n3)c2)C1=O` [Example 312, (R)-3-((3-(4-Amino-8-(furan-2-yl)pyrido[3,2-d]pyrimidin-6-yl)phenyl)ethynyl)-3-hydroxy-1-methylpyrrolidin-2-one] are 0.8 nM and 11 nM.
For `Cc1ccc(C#C[C@@]2(O)CCN(C)C2=O)cc1-c1ccc2ncnc(N)c2n1` [Example 260, (S)-3-((3-(4-Aminopyrido[3,2-d]pyrimidin-6-yl)-4-methylphenyl)ethynyl)-3-hydroxy-1-methylpyrrolidin-2-one], the IC50 in experiment [1] is 110 nM; in experiment [2], 2740 nM.
The corresponding values for `Cc1cc(C#C[C@]2(O)CCN(C)C2=O)cc(-c2ncc3c(C)cnc(N)c3n2)c1` [Example 76, (R)-3-[2-[3-(8-Amino-5-methyl-pyrido[3,4-d]pyrimidin-2-yl)-5-methyl-phenyl]ethynyl]-3-hydroxy-1-methyl-pyrrolidin-2-one] are 2.3 nM and 66 nM.
The corresponding values for `[2H]c1nc(N)c2nc(-c3cccc(C#C[C@]4(O)C(=O)N(C)[C@H]5C[C@H]54)c3)ccc2n1` [Example 275, (1S,4S,5R)-4-((3-(4-Aminopyrido[3,2-d]pyrimidin-6-yl-2-d)phenyl)ethynyl)-4-hydroxy-2-methyl-2-azabicyclo[3.1.0]hexan-3-one] are 300 nM and over 5000 nM.
The corresponding values for `CN1CC[C@@](O)(C#Cc2cccc(-c3cc(OC4CC4)c4ncnc(N)c4n3)c2)C1=O` [Example 304, (R)-3-[2-[3-[4-Amino-8-(cyclopropoxy)pyrido[3,2-d]pyrimidin-6-yl]phenyl]ethynyl]-3-hydroxy-1-methyl-pyrrolidin-2-one] are 0.6 nM and 15 nM.
For `CN1CC[C@@](O)(C#Cc2cccc(-c3ccc4nccc(N5CCC5)c4c3)c2)C1=O` [Example 235, (R)-3-((3-(4-(Azetidin-1-yl)quinolin-6-yl)phenyl)ethynyl)-3-hydroxy-1-methylpyrrolidin-2-one], the IC50 in experiment [1] is 2950 nM; in experiment [2], over 5000 nM.
Take `Cc1nc(N)c2nc(-c3cccc(C#C[C@](C)(O)c4ccccn4)c3)ccc2n1` [Example 191, (S)-4-[3-(4-Amino-2-methyl-pyrido[3,2-d]pyrimidin-6-yl)phenyl]-2-(2-pyridyl)but-3-yn-2-ol]: the IC50 in experiment [1] was determined as 15 nM; in experiment [2] it was 2980 nM.
The corresponding values for `CN1CC[C@@](O)(C#Cc2cccc(-c3ncc4c(-c5cnn(CCN)c5)cnc(N)c4n3)c2)C1=O` [Example 134, (R)-3-[2-[3-[8-Amino-5-[1-(2-aminoethyl)pyrazol-4-yl]pyrido[3,4-d]pyrimidin-2-yl]phenyl]ethynyl]-3-hydroxy-1-methyl-pyrrolidin-2-one] are at most 0.5 nM and 150 nM.
The corresponding values for `Cc1ccc(C#C[C@]2(O)CCN(C)C2=O)cc1-c1ccc2ncnc(N)c2n1` [Example 3, (R)-3-[2-[3-(4-Aminopyrido[3,2-d]pyrimidin-6-yl)-4-methyl-phenyl]ethynyl]-3-hydroxy-1-methyl-pyrrolidin-2-one] are 0.7 nM and 28 nM.
Take `CN1CC[C@@](O)(C#Cc2cccc(-c3ccc4ncnc(C5CC5)c4n3)c2)C1=O` [Example 270, (R)-3-((3-(4-Cyclopropylpyrido[3,2-d]pyrimidin-6-yl)phenyl)ethynyl)-3-hydroxy-1-methylpyrrolidin-2-one]: the values for the IC50 in experiment [1] and in experiment [2] were 26 nM and 1000 nM, respectively.
The corresponding values for `CN1CC[C@@](O)(C#Cc2cccc(-c3ncc4c(Br)cnc(N)c4n3)c2)C1=O` [Example 94, (R)-3-((3-(8-Amino-5-bromopyrido[3,4-d]pyrimidin-2-yl)phenyl)ethynyl)-3-hydroxy-1-methylpyrrolidin-2-one] are at most 0.5 nM and 4.2 nM.
The corresponding values for `Cc1nc(-c2cccc(C#C[C@]3(O)CCN(C)C3=O)c2)cc2c(N)ncnc12` [Example 136, (R)-3-[2-[3-(4-Amino-8-methyl-pyrido[3,4-d]pyrimidin-6-yl)phenyl]ethynyl]-3-hydroxy-1-methyl-pyrrolidin-2-one] are 0.7 nM and 60 nM.
In the case of `CN1CC[C@@](O)(C#Cc2cccc(N3CCCc4ncnc(N)c4C3)c2)C1=O` [Example 224, (R)-3-((3-(4-Amino-5,7,8,9-tetrahydro-6H-pyrimido[5,4-c]azepin-6-yl)phenyl)ethynyl)-3-hydroxy-1-methylpyrrolidin-2-one], the results for the IC50 in experiment [1] and in experiment [2] were 250 nM and over 5000 nM, respectively.
The corresponding values for `CN1CC[C@@](O)(C#Cc2cccc(-c3cnc4ncnc(N)c4c3)c2)C1=O` [Example 109, (R)-3-((3-(4-Aminopyrido[2,3-d]pyrimidin-6-yl)phenyl)ethynyl)-3-hydroxy-1-methylpyrrolidin-2-one] are 13 nM and over 5000 nM.
